Assay results as given in patent US11382956B2, “Amylin analogues” (Zealand Pharma A/S, priority 2016, dated 2022).
Numbered stars: 1 amine (or outer) side, 2 acyl side, 3 side chain; on linkers, the order of the positions; unused ones are H or OH. Bridge positions count the residues as written; N and C are the ends. Square brackets hold non-standard residues; d marks the D form. Peptide text beside a SMILES is read from it. * marks the point of attachment. C20 diacid = O=C(O)CCCCCCCCCCCCCCCCCCC(=O)*; γGlu = O=C(O)[C@H](CCC(=O)[*:2])N[*:1]; Hyp = O=C(O)[C@@H]1C[C@@H](O)CN1; NMeI = CC[C@H](C)[C@H](NC)C(=O)O; Aad = N[C@@H](CCCC(=O)O)C(=O)O; Orn = NCCC[C@H](N)C(=O)O; Sar = CNCC(=O)O

How the values were obtained:
[1] = target: T1, recombinant human calcitonin receptor (hCT-R) (Homo sapiens, UniProt P30988); assay: hCT-R cAMP assay (AlphaScreen) in 1321N1 cells; assay type: cell-based; conditions: cAMP formation, 45 min stimulation
T1 construct: host or cells: human astrocytoma cell line 1321N1
T1 sequence (P30988 25-474): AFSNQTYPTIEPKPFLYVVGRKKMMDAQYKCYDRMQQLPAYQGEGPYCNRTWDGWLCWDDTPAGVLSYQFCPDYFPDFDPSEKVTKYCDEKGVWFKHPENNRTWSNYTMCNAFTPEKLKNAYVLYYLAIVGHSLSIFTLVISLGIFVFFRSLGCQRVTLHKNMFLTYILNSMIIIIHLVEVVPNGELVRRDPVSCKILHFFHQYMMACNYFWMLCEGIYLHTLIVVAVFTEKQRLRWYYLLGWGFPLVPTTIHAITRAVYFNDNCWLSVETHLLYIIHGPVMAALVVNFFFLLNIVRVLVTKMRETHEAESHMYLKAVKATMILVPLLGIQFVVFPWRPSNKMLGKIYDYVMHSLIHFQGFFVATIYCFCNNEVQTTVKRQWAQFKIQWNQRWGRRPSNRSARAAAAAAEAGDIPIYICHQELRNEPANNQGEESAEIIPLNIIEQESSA
Excerpt: (§1) For the assessment of the in vitro activity of test peptides, cell lines expressing recombinant human calcitonin receptor (hCT-R) or recombinant human amylin 3 receptor (hAMYR3) in the background of the human astrocytoma cell line 1321N1 were purchased from DiscoveRx Corporation (Cat. No. 95-016106 and 95-0166C6). The hAMYR3 is a hetero-oligomer of the calcitonin receptor (Isoform 2; Gene ID 799) and RAMPS (Gene ID 10268) that forms when both genes are expressed in the same cell. The hCT-R cell line expresses only the recombinant human calcitonin receptor gene (Isoform 2; Gene ID 799). Upon activation of hCT-R or hAMYR3 by the test peptides the formation of cAMP is induced and was measured using the AlphaScreen® cAMP Assay kit from Perkin-Elmer (Cat. No. 6760635R).
(§2) Briefly, 1321N1 cells expressing hCT-R or hAMYR3 were seeded in 384-well microtiter plates (Falcon Optilux White, Cat.-No. 10448642) at 5,000 cells in […] growth medium per well (AssayComplete 1321N1 Cell Culture Kit, DiscoveRx Corp.), and incubated for 24 h at 37° C., 5% CO2. On the day of analysis growth medium was removed and the cells were stimulated by adding 10 μL of stimulation buffer (10 […], 0.1% BSA) containing increasing concentrations of test peptides, and incubation for 45 min at room temperature. The stimulation was stopped by adding 5.6 μL/well donor bead detection mix (5 mM Hepes pH7.4, 0.5% TWEEN 20, 0.1% BSA, 0.05 mg/mL donor beads, 62.5 nM biotinylated cAMP) and 4.5 μL/well acceptor bead solution (5 mM Hepes pH7.4, 0.5% TWEEN 20, 0.1% BSA, 0.05 mg/mL acceptor beads). After thorough mixing the plates were incubated in the dark for 1 h at room temperature and the cAMP content of the resulting cell lysates was estimated according to the AlphaScreen® cAMP Assay manufacturer's instructions. EC50 values were estimated by computer-aided curve fitting of results of at least 7 different compound concentrations.

[2] = target: T2, recombinant human amylin 3 receptor (hAMYR3) (Homo sapiens, UniProt O60896+P30988); assay: hAMYR3 cAMP assay (AlphaScreen) in 1321N1 cells; assay type: cell-based; conditions: cAMP formation, 45 min stimulation
T2 construct: host or cells: human astrocytoma cell line 1321N1
T2 sequence (P30988 25-474): T1 sequence (P30988 25-474)
T2 sequence (O60896 24-148 partner): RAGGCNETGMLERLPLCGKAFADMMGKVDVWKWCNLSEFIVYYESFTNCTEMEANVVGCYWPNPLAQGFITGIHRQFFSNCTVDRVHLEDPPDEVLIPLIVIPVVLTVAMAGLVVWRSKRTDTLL
Excerpt: as §1, §2

Row | Compound | EC50 [1] | EC50 [2]
1 | CC[C@H](C)[C@@H](C(=O)N[C@@H](CC(C)C)C(=O)N[C@@H](CO)C(=O)N[C@@H](CO)C(=O)N[C@H](C(=O)N[C@@H](CCC(=O)O)C(=O)N[C@H](C(=O)NCC(=O)N[C@@H](CO)C(=O)N[C@@H](CC(N)=O)C(=O)N[C@H](C(=O)N1C[C@H](O)C[C@H]1C(N)=O)[C@@H](C)O)C(C)C)[C@@H](C)O)N(C)C(=O)[C@H](C)NC(=O)CN(C)C(=O)[C@H](Cc1ccccc1)NC(=O)[C@@H](NC(=O)[C@@H](NC(=O)[C@H](CCCNC(=N)N)NC(=O)[C@H](CCC(N)=O)NC(=O)[C@H](CC(C)C)NC(=O)[C@H](Cc1ccccc1)NC(=O)[C@H](CCCC(=O)O)NC(=O)[C@H](C)NC(=O)[C@H](CC(C)C)NC(=O)[C@H](CCCNC(=N)N)NC(=O)[C@H](CCC(=O)O)NC(=O)[C@@H](NC(=O)[C@H](C)NC(=O)[C@@H]1CCCNC(=O)C[C@H](NC(=O)[C@H](CCCNC(=N)N)NC(=O)CC[C@H](NC(=O)CCCCCCCCCCCCCCCCCCC(=O)O)C(=O)O)C(=O)NCC(=O)N[C@@H]([C@@H](C)O)C(=O)N[C@@H](C)C(=O)N[C@@H]([C@@H](C)O)C(=O)N1)[C@@H](C)O)[C@@H](C)O)[C@@H](C)O [Compound 23, [19CD]-isoGlu-RD()GTAT-Orn()-ATERLA-Aad-FLQRTTF-Gly(Me)-A-Ile(Me)-LSSTEVGSNT-Hyp-NH2] ({C20 diacid-γGlu}-RDGTAT[Orn]ATERLA[Aad]FLQRTTF[Sar]A[NMeI]LSSTEVGSNT[Hyp]-NH2; lactam 2-7) | 1.93 nM | 0.706 nM
2 | CC[C@H](C)[C@@H](C(=O)N[C@@H](CC(C)C)C(=O)N[C@@H](CO)C(=O)N[C@@H](CO)C(=O)N[C@H](C(=O)N[C@@H](CCC(=O)O)C(=O)N[C@H](C(=O)NCC(=O)N[C@@H](CO)C(=O)N[C@@H](CC(N)=O)C(=O)N[C@H](C(=O)N1C[C@H](O)C[C@H]1C(N)=O)[C@@H](C)O)C(C)C)[C@@H](C)O)N(C)C(=O)[C@H](C)NC(=O)CN(C)C(=O)[C@H](Cc1ccccc1)NC(=O)[C@H](CCCNC(=N)N)NC(=O)[C@H](CCC(N)=O)NC(=O)[C@H](CC(C)C)NC(=O)[C@H](Cc1ccccc1)NC(=O)[C@H](Cc1c[nH]cn1)NC(=O)[C@H](C)NC(=O)[C@H](CC(C)C)NC(=O)[C@H](CCCNC(=N)N)NC(=O)[C@H](CCC(=O)O)NC(=O)[C@@H](NC(=O)[C@H](C)NC(=O)[C@@H]1CCCNC(=O)C[C@H](NC(=O)[C@H](CCCNC(=N)N)NC(=O)CC[C@H](NC(=O)CCCCCCCCCCCCCCCCCCC(=O)O)C(=O)O)C(=O)NCC(=O)N[C@@H]([C@@H](C)O)C(=O)N[C@@H](C)C(=O)N[C@@H]([C@@H](C)O)C(=O)N1)[C@@H](C)O [Compound 6, [19CD]-isoGlu-RD()GTAT-Orn()-ATERLAHFLQRF-Gly(Me)-A-Ile(Me)-LSSTEVGSNT-Hyp-NH2] ({C20 diacid-γGlu}-RDGTAT[Orn]ATERLAHFLQRF[Sar]A[NMeI]LSSTEVGSNT[Hyp]-NH2; lactam 2-7) | 0.327 nM | 0.011 nM
3 | CC[C@H](C)[C@@H](C(=O)N[C@@H](CC(C)C)C(=O)N[C@@H](CO)C(=O)N[C@@H](CO)C(=O)N[C@H](C(=O)N[C@@H](CCC(=O)O)C(=O)N[C@H](C(=O)NCC(=O)N[C@@H](CO)C(=O)N[C@@H](CC(N)=O)C(=O)N[C@H](C(=O)N1C[C@H](O)C[C@H]1C(N)=O)[C@@H](C)O)C(C)C)[C@@H](C)O)N(C)C(=O)[C@H](C)NC(=O)CN(C)C(=O)[C@H](Cc1ccccc1)NC(=O)[C@H](CO)NC(=O)[C@H](CO)NC(=O)[C@H](CCCNC(=N)N)NC(=O)[C@H](CCC(N)=O)NC(=O)[C@H](CC(C)C)NC(=O)[C@H](Cc1ccccc1)NC(=O)[C@H](CCCC(=O)O)NC(=O)[C@H](C)NC(=O)[C@H](CC(C)C)NC(=O)[C@H](CCCNC(=N)N)NC(=O)[C@H](CCC(=O)O)NC(=O)[C@@H](NC(=O)[C@H](C)NC(=O)[C@@H]1CCCCNC(=O)C[C@H](NC(=O)[C@H](CCCNC(=N)N)NC(=O)CC[C@H](NC(=O)CCCCCCCCCCCCCCCCCCC(=O)O)C(=O)O)C(=O)N2CCC[C@H]2C(=O)N[C@@H]([C@@H](C)O)C(=O)N[C@@H](C)C(=O)N[C@@H]([C@@H](C)O)C(=O)N1)[C@@H](C)O [Compound 29, [19CD]-isoGlu-RD()PTATK()ATERLA-Aad-FLQRSSF-Gly(Me)-A-Ile(Me)-LSSTEVGSNT-Hyp-NH2] ({C20 diacid-γGlu}-RDPTATKATERLA[Aad]FLQRSSF[Sar]A[NMeI]LSSTEVGSNT[Hyp]-NH2; lactam 2-7) | 1.07 nM | 0.312 nM

Second part, the molecule after the results:

Row | EC50 [1] | EC50 [2] | Compound
4 | 18.2 nM | 13.2 nM | CC[C@H](C)[C@@H](C(=O)N[C@@H](CC(C)C)C(=O)N[C@@H](CO)C(=O)N[C@@H](CO)C(=O)N[C@H](C(=O)N[C@@H](CCC(=O)O)C(=O)N[C@H](C(=O)NCC(=O)N[C@@H](CO)C(=O)N[C@@H](CC(N)=O)C(=O)N[C@H](C(=O)N1C[C@H](O)C[C@H]1C(N)=O)[C@@H](C)O)C(C)C)[C@@H](C)O)N(C)C(=O)[C@H](C)NC(=O)CN(C)C(=O)[C@H](Cc1ccccc1)NC(=O)[C@H](CO)NC(=O)[C@H](CO)NC(=O)[C@H](CCCNC(=N)N)NC(=O)[C@H](CCC(N)=O)NC(=O)[C@H](CC(C)C)NC(=O)[C@H](Cc1ccccc1)NC(=O)[C@H](CCCC(=O)O)NC(=O)[C@H](C)NC(=O)[C@H](CC(C)C)NC(=O)[C@H](CCCNC(=N)N)NC(=O)[C@H](CCC(=O)O)NC(=O)[C@@H](NC(=O)[C@H](C)NC(=O)[C@H](CCCN)NC(=O)[C@@H](NC(=O)[C@H](C)NC(=O)[C@@H](NC(=O)CNC(=O)[C@H](CC(=O)O)NC(=O)[C@H](CCCNC(=N)N)NC(=O)CC[C@H](NC(=O)CCCCCCCCCCCCCCCCCCC(=O)O)C(=O)O)[C@@H](C)O)[C@@H](C)O)[C@@H](C)O [Ref. 3, [19CD]-isoGlu-RDGTAT-Orn-ATERLA-Aad-FLQRSSF-Sar-A-Ile(Me)-LSSTEVGSNT-Hyp-NH2, reference compound] ({C20 diacid-γGlu}-RDGTAT[Orn]ATERLA[Aad]FLQRSSF[Sar]A[NMeI]LSSTEVGSNT[Hyp]-NH2)
5 | 10.8 nM | 7.7 nM | CC[C@H](C)[C@@H](C(=O)N[C@@H](CC(C)C)C(=O)N[C@@H](CO)C(=O)N[C@@H](CO)C(=O)N[C@H](C(=O)N[C@@H](CCC(=O)O)C(=O)N[C@H](C(=O)NCC(=O)N[C@@H](CO)C(=O)N[C@@H](CC(N)=O)C(=O)N[C@H](C(=O)N1C[C@H](O)C[C@H]1C(N)=O)[C@@H](C)O)C(C)C)[C@@H](C)O)N(C)C(=O)[C@H](C)NC(=O)CN(C)C(=O)[C@H](Cc1ccccc1)NC(=O)[C@H](CO)NC(=O)[C@H](CO)NC(=O)[C@H](CCCNC(=N)N)NC(=O)[C@H](CCC(N)=O)NC(=O)[C@H](CC(C)C)NC(=O)[C@H](Cc1ccccc1)NC(=O)[C@H](Cc1c[nH]cn1)NC(=O)[C@H](C)NC(=O)[C@H](CC(C)C)NC(=O)[C@H](CCCNC(=N)N)NC(=O)[C@H](CCC(=O)O)NC(=O)[C@@H](NC(=O)[C@H](C)NC(=O)[C@@H]1CC(=O)NCCC[C@H](NC(=O)[C@H](CCCNC(=N)N)NC(=O)CC[C@H](NC(=O)CCCCCCCCCCCCCCCCCCC(=O)O)C(=O)O)C(=O)NCC(=O)N[C@@H]([C@@H](C)O)C(=O)N[C@@H](C)C(=O)N[C@@H]([C@@H](C)O)C(=O)N1)[C@@H](C)O [Compound 47, [19CD]-isoGlu-R-Orn()-GTATD()ATERLAHFLQRSSF-Gly(Me)-A-Ile(Me)-LSSTEVGSNT-Hyp-NH2] ({C20 diacid-γGlu}-R[Orn]GTATDATERLAHFLQRSSF[Sar]A[NMeI]LSSTEVGSNT[Hyp]-NH2; lactam 2-7)
